The subject of this assay is STAT3 transcriptional activity. Put plainly: STAT3 transcriptional activity inhibitory effect, luciferase reporter assay with IL-6 stimulation. Type of assay: cell-based, human. The note with it: for inhibition at 1 µM: Homo sapiens, read-out: STAT3 transcriptional activity inhibitory effect % inhibition, 50% or less; for inhibition at 1 µM / STAT3 transcriptional activity inhibitory effect % inhibition, 70% or more / STAT3 transcriptional activity inhibitory effect % inhibition, 50-70%: IL-6 (10 ng/mL), 24 hours, HEK293 cells with STAT3 promoter and luciferase reporter; for STAT3 activity inhibitory effect (in words): compounds at 1 µM compared with BBI-608 at 3 µM. The procedure:
For HEK293 cells, an immortalized human kidney cell line, transformed HEK293 cells, in which an STAT3 promoter and a luciferase reporter were stably expressed, were used. The HEK293 cells, in which the STAT3 promoter was stably expressed, were cultured in a cell incubator at 5% CO2 and 37°C using an MEM (10% FBS) medium, and then an inhibitory effect on STAT3 transcriptional activity was confirmed by the following method.
First, HEK293 cells, in which the STAT3 promoter was stably expressed, were inoculated into a 96-well plate (white, clear bottom culture plate) at a density of 2X 10^4 cells/well, and then cultured in an incubator at 37°C and 5% CO2 for 24 hours. Then, the compound synthesized according to the above synthesis example (1 µM) or BBI-608 (Napabucasin; comparative group 3 µM) and IL-6 (10 ng/mL) were treated together, and reacted in an incubator at 37°C and 5% CO2 for 24 hours. Afterwards, the culture medium in the 96-well plate was removed, and the cells were lysed by treatment with Passive Lysis Buffer (Promega/Cat. Number E1941). Luciferase activity was tested using the Luciferase Assay System (Promega/Cat. Number E1501), and a luminescence value was measured using a microplate reader. A well not treated with IL-6 (10 ng/mL) without test substance treatment was used as a negative control, and a well treated with IL-6 (10 ng/mL) without test substance treatment was used as a positive control. A degree of STAT3 transcriptional activity inhibitory effect by the compound of the present invention was evaluated by comparing the luminescence values from each well.

Structures are written as SMILES.

As usually defined, the inhibition is how much of the control response was suppressed. As for `O=C1c2ccccc2-c2ccc(-c3cnc4ccccn34)cc21` [Compound 10, 2-(imidazo[1,2-a]pyridin-3-yl)-9H-fluoren-9-one], the inhibition at 1 µM (compound concentration of 1 µM) is at most 50%. Take `O=C1c2ccccc2-c2ccc(-c3cncc4cccnc34)cc21` [Compound 7, 2-(1,6-naphthyridin-8-yl)-9H-fluoren-9-one]: the “STAT3 activity inhibitory effect (in words)” value was “excellent STAT3 activity inhibitory effect”. Also, the “STAT3 transcriptional activity inhibitory effect % inhibition, 70% or more” value (compound concentration of 1 µM) is “○ (70% or more)”. For `c1ccc2c(-c3ccc4c(c3)sc3ccccc34)cncc2c1` [Compound 11, 4-(dibenzo[b,d]thiophen-3-yl)isoquinoline], under “compound concentration of 1 µM”, the inhibition at 1 µM is at most 50%.

For the compound `c1ccc2c(-c3ccc4c(c3)[nH]c3ccccc34)cncc2c1` [Compound 15, 2-(isoquinolin-4-yl)-9H-carbazole], for the setting “compound concentration of 1 µM”, the “STAT3 transcriptional activity inhibitory effect % inhibition, 50-70%” value is “○ (50-70%)”. With `O=C1c2ccccc2-c2ccc(-c3cccc4ccncc34)cc21` [Compound 17, 2-(isoquinolin-8-yl)-9H-fluoren-9-one], the inhibition at 1 µM (compound concentration of 1 µM) is at most 50%. On the same count and under the same terms, in the case of `c1ccc2c(-c3ccc4c(c3)oc3ccccc34)cncc2c1` [Compound 12, 4-(dibenzo[b,d]furan-3-yl)isoquinoline] it was at most 50%. For `O=c1c2ccccc2sc2ccc(-c3cncc4ccccc34)cc12` [Compound 4, 2-(isoquinolin-4-yl)-9H-thioxanthen-9-one], under “compound concentration of 1 µM”, the “STAT3 transcriptional activity inhibitory effect % inhibition, 50-70%” value was “○ (50-70%)”.

In the case of `c1ccc2c(-c3ccc4c(c3)[nH]c3ccncc34)cncc2c1` [Compound 13, 7-(isoquinolin-4-yl)-5H-pyrido[4,3-b]indole], the “STAT3 activity inhibitory effect (in words)” value was “excellent STAT3 activity inhibitory effect”. The “STAT3 transcriptional activity inhibitory effect % inhibition, 70% or more” value (compound concentration of 1 µM) is listed as “○ (70% or more)”. Regarding `O=c1c2ccccc2oc2ccc(-c3cncc4ccccc34)cc12` [Compound 3, 2-(isoquinolin-4-yl)-9H-xanthen-9-one], the inhibition at 1 µM (compound concentration of 1 µM) is at most 50%. Regarding `c1ccc2c(-c3ccc4c5c([nH]c4c3)CCC5)cncc2c1` [Compound 21, 6-(isoquinolin-4-yl)-1,2,3,4-tetrahydrocyclopenta[b]indole], the “STAT3 activity inhibitory effect (in words)” value is “excellent STAT3 activity inhibitory effect”. The “STAT3 transcriptional activity inhibitory effect % inhibition, 70% or more” value (compound concentration of 1 µM) is reported as “○ (70% or more)”. In the case of `O=C1c2ccccc2-c2ccc(-c3cncc4nccnc34)cc21` [Compound 5, 2-(pyrido[3,4-b]pyrazin-8-yl)-9H-fluoren-9-one], the “STAT3 transcriptional activity inhibitory effect % inhibition, 50-70%” value (compound concentration of 1 µM) was “○ (50-70%)”. For the compound `O=C1c2ccccc2-c2ccc(-c3cncc4ccccc34)cc21` [Compound 14, 2-(isoquinolin-4-yl)-9H-fluoren-9-one], the “STAT3 activity inhibitory effect (in words)” value is “excellent STAT3 activity inhibitory effect”. The “STAT3 transcriptional activity inhibitory effect % inhibition, 70% or more” value (compound concentration of 1 µM) is “○ (70% or more)”. `O=C1c2ccccc2-c2ccc(-c3nccc4ncccc34)cc21` [Compound 8, 2-(1,6-naphthyridin-5-yl)-9H-fluoren-9-one]: the “STAT3 activity inhibitory effect (in words)” value is on record as “excellent STAT3 activity inhibitory effect”. Also, for the setting “compound concentration of 1 µM”, the “STAT3 transcriptional activity inhibitory effect % inhibition, 70% or more” value is “○ (70% or more)”.

Regarding `O=C1c2ccccc2-c2ccc(-c3cnn4ccccc34)cc21` [Compound 9, 2-(pyrazolo[1,5-a]pyridin-3-yl)-9H-fluoren-9-one], the “STAT3 activity inhibitory effect (in words)” value is reported as “excellent STAT3 activity inhibitory effect”. Also, where the note is “compound concentration of 1 µM”, the “STAT3 transcriptional activity inhibitory effect % inhibition, 70% or more” value is “○ (70% or more)”. Regarding `O=C1c2ccccc2-c2ccc(-c3cccn4cnnc34)cc21` [Compound 20, 2-([1,2,4]triazolo[4,3-a]pyridin-8-yl)-9H-fluoren-9-one], under “compound concentration of 1 µM”, the inhibition at 1 µM was at most 50%. Take `c1ccc2c(-c3ccc4c5c([nH]c4c3)CCCC5)cncc2c1` [Compound 16, 7-(isoquinolin-4-yl)-2,3,4,9-tetrahydro-1H-carbazole]: the “STAT3 transcriptional activity inhibitory effect % inhibition, 50-70%” value (compound concentration of 1 µM) was “○ (50-70%)”. As for `CC(=O)c1cc2c(o1)C(=O)c1ccccc1C2=O` [BBI-608, Napabucasin, reference compound], the “STAT3 transcriptional activity inhibitory effect % inhibition, 50-70%” value (comparative group at 3 uM) was “○ (50-70%)”. Consider `O=C1c2ccccc2-c2ccc(-c3cccc4cnccc34)cc21` [Compound 18, 2-(isoquinolin-5-yl)-9H-fluoren-9-one], for which the “STAT3 transcriptional activity inhibitory effect % inhibition, 50-70%” value (compound concentration of 1 µM) is given as “○ (50-70%)”. Regarding `O=C1C(=O)c2cc(-c3cncc4ccccc34)ccc2-c2ccc(Br)cc21` [Compound 2, 2-bromo-7-(isoquinolin-4-yl)phenanthrene-9,10-dione], the inhibition at 1 µM (compound concentration of 1 µM) was at most 50%. On the same count and under the same terms, in the case of `O=C1c2ccccc2-c2ccc(-c3nccc4ccccc34)cc21` [Compound 22, 2-(isoquinolin-1-yl)-9H-fluoren-9-one] it was at most 50%; in that of `O=C1c2ccccc2-c2ccc(-c3cccc4nccn34)cc21` [Compound 19, 2-(imidazo[1,2-a]pyridin-5-yl)-9H-fluoren-9-one], at most 50%. Regarding `O=C1c2ccccc2-c2ccc(-c3cccn4ccnc34)cc21` [Compound 23, 2-(imidazo[1,2-a]pyridin-8-yl)-9H-fluoren-9-one], the “STAT3 activity inhibitory effect (in words)” value is “excellent STAT3 activity inhibitory effect”. Besides, the “STAT3 transcriptional activity inhibitory effect % inhibition, 70% or more” value (compound concentration of 1 µM) was “○ (70% or more)”.

Source of the values: patent publication EP4424671A1, “NOVEL TRICYCLIC DERIVATIVE COMPOUND AND USE THEREOF” (Huchembio Co., Ltd., priority 2021, dated 2023).
